# Tests used:
# [1] = target: Transient receptor potential cation channel subfamily M member 8 (Homo sapiens, UniProt Q7Z2W7); test: Assay (coming soon)
# [2] = target: 5-hydroxytryptamine receptor 1A (Homo sapiens) (UniProt P08908); details: Compound concentration 10.0 uM
# [3] = target: 5-hydroxytryptamine receptor 1B (Homo sapiens) (UniProt P28222); details: Compound concentration 10.0 uM
# [4] = target: 5-hydroxytryptamine receptor 2A (Homo sapiens) (UniProt P28223); details: Compound concentration 10.0 uM
# [5] = target: 5-hydroxytryptamine receptor 2B (Homo sapiens) (UniProt P41595); details: Compound concentration 10.0 uM
# [6] = target: 5-hydroxytryptamine receptor 2C (Homo sapiens) (UniProt P28335); details: Compound concentration 10.0 uM
# [7] = target: 5-hydroxytryptamine receptor 3A (Homo sapiens) (UniProt P46098); details: Compound concentration 10.0 uM
# [8] = target: 5-hydroxytryptamine receptor 5A (Homo sapiens) (UniProt P47898); details: Compound concentration 10.0 uM
# [9] = target: 5-hydroxytryptamine receptor 6 (Homo sapiens) (UniProt P50406); details: Compound concentration 10.0 uM
# [10] = target: 5-hydroxytryptamine receptor 7 (Homo sapiens) (UniProt P34969); details: Compound concentration 10.0 uM
# [11] = target: D(2) dopamine receptor (Homo sapiens) (UniProt P14416); details: Compound concentration 10.0 uM
# [12] = target: D(4) dopamine receptor (Homo sapiens) (UniProt P21917); details: Compound concentration 10.0 uM
# [13] = target: D(1B) dopamine receptor (Homo sapiens) (UniProt P21918); details: Compound concentration 10.0 uM
# [14] = target: Sodium-dependent serotonin transporter (Homo sapiens) (UniProt P31645); details: Compound concentration 10.0 uM
# [15] = target: Sodium-dependent noradrenaline transporter (Homo sapiens) (UniProt P23975); details: Compound concentration 10.0 uM
# [16] = target: Mu-type opioid receptor (Homo sapiens) (UniProt P35372); details: Compound concentration 10.0 uM
# [17] = target: Delta-type opioid receptor (Homo sapiens) (UniProt P41143); details: Compound concentration 10.0 uM
# [18] = target: Kappa-type opioid receptor (Homo sapiens) (UniProt P41145); details: Compound concentration 10.0 uM
# [19] = target: T1, GABA-A receptor; anion channel (Rattus norvegicus) (UniProt O09028+P15431+P18506+P18508+P19969+P20236+P23574+P23576+P28471+P28473+P30191+P62813+P63079+P63138+Q91ZM7+Q9ES14); details: Compound concentration 10.0 uM
# [20] = target: Histamine H1 receptor (Homo sapiens) (UniProt P35367); details: Compound concentration 10.0 uM
# [21] = target: Histamine H3 receptor (Homo sapiens) (UniProt Q9Y5N1); details: Compound concentration 10.0 uM
# [22] = target: Histamine H4 receptor (Homo sapiens) (UniProt Q9H3N8); details: Compound concentration 10.0 uM
# [23] = target: Alpha-1A adrenergic receptor (Homo sapiens) (UniProt P35348); details: Compound concentration 10.0 uM
# [24] = target: Alpha-1B adrenergic receptor (Homo sapiens) (UniProt P35368); details: Compound concentration 10.0 uM
# [25] = target: T2, Alpha-2B adrenergic receptor (Homo sapiens) (UniProt P18089); details: Compound concentration 10.0 uM
# T2 sequence (whole entry): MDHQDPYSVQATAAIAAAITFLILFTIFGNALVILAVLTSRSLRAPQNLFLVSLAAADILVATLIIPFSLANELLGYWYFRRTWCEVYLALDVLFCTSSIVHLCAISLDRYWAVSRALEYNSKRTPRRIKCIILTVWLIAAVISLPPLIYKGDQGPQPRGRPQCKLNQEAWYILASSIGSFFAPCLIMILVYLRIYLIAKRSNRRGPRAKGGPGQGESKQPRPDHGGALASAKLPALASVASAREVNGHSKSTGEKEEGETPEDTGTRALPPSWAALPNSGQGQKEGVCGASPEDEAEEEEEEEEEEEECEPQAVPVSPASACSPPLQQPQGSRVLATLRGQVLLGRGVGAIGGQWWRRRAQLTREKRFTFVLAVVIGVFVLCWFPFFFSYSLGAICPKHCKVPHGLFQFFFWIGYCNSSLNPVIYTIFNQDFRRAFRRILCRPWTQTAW
# [26] = target: Alpha-2C adrenergic receptor (Homo sapiens) (UniProt P18825); details: Compound concentration 10.0 uM
# [27] = target: Beta-1 adrenergic receptor (Homo sapiens) (UniProt P08588); details: Compound concentration 10.0 uM
# [28] = target: Beta-2 adrenergic receptor (Homo sapiens) (UniProt P07550); details: Compound concentration 10.0 uM
# [29] = target: Muscarinic acetylcholine receptor M1 (Homo sapiens) (UniProt P11229); details: Compound concentration 10.0 uM
# [30] = target: Muscarinic acetylcholine receptor M2 (Homo sapiens) (UniProt P08172); details: Compound concentration 10.0 uM
# [31] = target: Muscarinic acetylcholine receptor M3 (Homo sapiens) (UniProt P20309); details: Compound concentration 10.0 uM
# [32] = target: Muscarinic acetylcholine receptor M4 (Homo sapiens) (UniProt P08173); details: Compound concentration 10.0 uM
# [33] = target: Muscarinic acetylcholine receptor M5 (Homo sapiens) (UniProt P08912); details: Compound concentration 10.0 uM
# [34] = target: Beta-3 adrenergic receptor (Homo sapiens) (UniProt P13945); details: Compound concentration 10.0 uM
# [35] = target: T1, GABA-A receptor; anion channel (Rattus norvegicus); details: Compound concentration 10.0 uM; remark: listed apart in the source
# [36] = species on record: Rattus norvegicus; details: Compound concentration 10.0 uM
# [37] = target: Alpha-1D adrenergic receptor (Homo sapiens) (UniProt P25100); details: Compound concentration 10.0 uM
# Chain of Muscarinic acetylcholine receptor M4 (Homo sapiens) (P08173 whole entry): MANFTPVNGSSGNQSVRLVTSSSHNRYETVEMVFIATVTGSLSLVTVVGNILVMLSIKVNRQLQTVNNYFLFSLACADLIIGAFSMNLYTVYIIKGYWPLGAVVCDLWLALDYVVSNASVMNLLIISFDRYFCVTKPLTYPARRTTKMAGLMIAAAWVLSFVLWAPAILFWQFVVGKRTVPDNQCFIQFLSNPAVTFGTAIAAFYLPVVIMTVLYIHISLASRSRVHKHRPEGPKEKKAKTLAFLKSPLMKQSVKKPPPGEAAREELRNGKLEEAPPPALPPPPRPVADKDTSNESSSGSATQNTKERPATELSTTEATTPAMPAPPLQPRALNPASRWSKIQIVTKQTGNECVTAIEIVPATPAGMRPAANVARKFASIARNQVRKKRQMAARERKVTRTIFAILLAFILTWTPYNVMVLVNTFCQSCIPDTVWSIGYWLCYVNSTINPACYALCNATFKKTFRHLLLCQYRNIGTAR
# Chain of 5-hydroxytryptamine receptor 1A (Homo sapiens) (P08908 whole entry): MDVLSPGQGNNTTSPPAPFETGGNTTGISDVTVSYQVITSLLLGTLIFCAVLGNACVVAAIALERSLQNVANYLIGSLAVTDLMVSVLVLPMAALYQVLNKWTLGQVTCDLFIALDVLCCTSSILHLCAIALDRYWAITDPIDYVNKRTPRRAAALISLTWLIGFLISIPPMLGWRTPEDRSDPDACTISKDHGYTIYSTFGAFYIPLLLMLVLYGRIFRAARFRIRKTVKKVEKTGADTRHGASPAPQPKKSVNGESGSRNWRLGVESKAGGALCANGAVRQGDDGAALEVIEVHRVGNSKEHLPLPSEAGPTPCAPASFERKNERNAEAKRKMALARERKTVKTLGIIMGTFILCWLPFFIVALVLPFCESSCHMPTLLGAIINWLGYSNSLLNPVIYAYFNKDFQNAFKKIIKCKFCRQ
# Chain of 5-hydroxytryptamine receptor 2C (Homo sapiens) (P28335 whole entry): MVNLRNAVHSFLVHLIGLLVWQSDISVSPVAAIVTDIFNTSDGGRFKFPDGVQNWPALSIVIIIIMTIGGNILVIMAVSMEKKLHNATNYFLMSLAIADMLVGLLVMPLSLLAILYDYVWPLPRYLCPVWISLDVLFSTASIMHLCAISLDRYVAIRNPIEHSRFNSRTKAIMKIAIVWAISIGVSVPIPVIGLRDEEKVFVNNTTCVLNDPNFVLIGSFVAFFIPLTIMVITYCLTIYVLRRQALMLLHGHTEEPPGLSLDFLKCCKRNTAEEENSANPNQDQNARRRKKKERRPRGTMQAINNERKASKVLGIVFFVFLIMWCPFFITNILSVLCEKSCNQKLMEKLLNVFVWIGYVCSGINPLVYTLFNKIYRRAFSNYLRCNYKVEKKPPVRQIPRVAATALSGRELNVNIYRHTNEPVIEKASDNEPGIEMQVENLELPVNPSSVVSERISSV
# Chain of 5-hydroxytryptamine receptor 5A (Homo sapiens) (P47898 whole entry): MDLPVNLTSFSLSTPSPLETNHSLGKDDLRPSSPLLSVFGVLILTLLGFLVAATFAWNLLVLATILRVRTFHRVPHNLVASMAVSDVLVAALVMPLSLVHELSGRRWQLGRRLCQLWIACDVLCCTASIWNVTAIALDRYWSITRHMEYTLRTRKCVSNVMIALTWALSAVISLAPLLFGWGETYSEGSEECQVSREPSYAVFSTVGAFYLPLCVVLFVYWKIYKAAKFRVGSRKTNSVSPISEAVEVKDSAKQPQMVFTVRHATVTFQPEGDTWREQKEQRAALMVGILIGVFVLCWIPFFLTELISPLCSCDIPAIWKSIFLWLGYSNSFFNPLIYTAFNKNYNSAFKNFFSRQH
# Chain of Histamine H1 receptor (Homo sapiens) (P35367 whole entry): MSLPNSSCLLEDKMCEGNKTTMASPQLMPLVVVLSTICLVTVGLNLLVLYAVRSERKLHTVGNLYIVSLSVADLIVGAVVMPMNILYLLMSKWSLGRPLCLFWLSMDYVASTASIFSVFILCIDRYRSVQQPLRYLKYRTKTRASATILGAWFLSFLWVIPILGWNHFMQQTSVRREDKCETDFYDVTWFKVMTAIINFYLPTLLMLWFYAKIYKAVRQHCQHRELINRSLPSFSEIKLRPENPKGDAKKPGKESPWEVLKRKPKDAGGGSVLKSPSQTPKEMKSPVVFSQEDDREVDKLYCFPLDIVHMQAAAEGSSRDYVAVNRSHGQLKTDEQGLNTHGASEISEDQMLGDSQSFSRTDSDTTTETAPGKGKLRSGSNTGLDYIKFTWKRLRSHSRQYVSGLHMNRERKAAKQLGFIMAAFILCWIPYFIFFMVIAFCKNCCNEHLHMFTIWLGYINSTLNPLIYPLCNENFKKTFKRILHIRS
# Chain of 5-hydroxytryptamine receptor 3A (Homo sapiens) (P46098 whole entry): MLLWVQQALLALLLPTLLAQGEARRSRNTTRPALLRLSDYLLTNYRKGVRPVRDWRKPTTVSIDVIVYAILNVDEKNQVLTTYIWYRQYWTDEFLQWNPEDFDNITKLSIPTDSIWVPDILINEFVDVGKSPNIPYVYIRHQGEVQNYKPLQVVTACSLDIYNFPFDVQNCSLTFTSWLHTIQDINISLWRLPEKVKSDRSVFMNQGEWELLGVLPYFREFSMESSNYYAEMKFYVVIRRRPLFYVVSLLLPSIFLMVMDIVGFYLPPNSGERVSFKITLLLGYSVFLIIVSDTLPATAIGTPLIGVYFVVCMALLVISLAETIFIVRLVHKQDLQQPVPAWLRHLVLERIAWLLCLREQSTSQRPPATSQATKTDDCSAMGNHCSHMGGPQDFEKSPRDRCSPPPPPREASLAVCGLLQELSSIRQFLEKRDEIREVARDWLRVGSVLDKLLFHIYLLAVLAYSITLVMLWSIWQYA
# Chain of 5-hydroxytryptamine receptor 2A (Homo sapiens) (P28223 whole entry): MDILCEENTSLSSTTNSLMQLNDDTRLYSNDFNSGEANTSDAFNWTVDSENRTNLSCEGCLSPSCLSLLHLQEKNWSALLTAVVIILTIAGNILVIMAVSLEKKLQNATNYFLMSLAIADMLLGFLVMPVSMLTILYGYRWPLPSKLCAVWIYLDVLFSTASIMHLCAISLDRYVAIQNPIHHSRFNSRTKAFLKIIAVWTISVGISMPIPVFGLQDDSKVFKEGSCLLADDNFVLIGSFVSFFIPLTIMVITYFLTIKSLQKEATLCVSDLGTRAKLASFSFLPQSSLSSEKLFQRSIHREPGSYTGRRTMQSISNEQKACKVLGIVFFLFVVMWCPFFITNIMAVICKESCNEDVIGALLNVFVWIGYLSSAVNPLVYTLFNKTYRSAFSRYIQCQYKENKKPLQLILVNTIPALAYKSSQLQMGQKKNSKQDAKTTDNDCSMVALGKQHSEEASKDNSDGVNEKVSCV
# Chain of D(4) dopamine receptor (Homo sapiens) (P21917 whole entry): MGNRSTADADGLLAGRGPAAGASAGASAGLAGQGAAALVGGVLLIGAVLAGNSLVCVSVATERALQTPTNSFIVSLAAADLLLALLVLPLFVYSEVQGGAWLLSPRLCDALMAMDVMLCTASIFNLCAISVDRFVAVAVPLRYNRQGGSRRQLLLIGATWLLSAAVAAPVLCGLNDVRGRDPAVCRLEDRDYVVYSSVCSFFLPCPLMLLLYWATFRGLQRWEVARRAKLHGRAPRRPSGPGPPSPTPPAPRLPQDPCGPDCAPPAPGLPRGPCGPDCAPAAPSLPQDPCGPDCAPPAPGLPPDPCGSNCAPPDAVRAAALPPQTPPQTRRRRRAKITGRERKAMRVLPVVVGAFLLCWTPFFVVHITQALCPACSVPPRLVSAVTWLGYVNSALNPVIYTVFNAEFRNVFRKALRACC
# Chain of Muscarinic acetylcholine receptor M1 (Homo sapiens) (P11229 whole entry): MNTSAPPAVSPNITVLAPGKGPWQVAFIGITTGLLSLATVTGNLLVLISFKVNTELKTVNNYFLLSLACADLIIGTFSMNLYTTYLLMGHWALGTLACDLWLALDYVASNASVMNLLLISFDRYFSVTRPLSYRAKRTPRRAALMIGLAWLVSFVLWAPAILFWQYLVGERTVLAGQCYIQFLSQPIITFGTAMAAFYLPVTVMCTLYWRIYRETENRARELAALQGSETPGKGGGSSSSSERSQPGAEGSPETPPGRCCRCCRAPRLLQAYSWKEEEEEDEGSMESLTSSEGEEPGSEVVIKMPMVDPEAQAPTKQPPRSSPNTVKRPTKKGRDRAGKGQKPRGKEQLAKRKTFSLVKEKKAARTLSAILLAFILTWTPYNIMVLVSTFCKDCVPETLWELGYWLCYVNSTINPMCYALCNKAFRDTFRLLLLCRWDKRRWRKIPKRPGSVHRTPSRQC
# Chain of 5-hydroxytryptamine receptor 1B (Homo sapiens) (P28222 whole entry): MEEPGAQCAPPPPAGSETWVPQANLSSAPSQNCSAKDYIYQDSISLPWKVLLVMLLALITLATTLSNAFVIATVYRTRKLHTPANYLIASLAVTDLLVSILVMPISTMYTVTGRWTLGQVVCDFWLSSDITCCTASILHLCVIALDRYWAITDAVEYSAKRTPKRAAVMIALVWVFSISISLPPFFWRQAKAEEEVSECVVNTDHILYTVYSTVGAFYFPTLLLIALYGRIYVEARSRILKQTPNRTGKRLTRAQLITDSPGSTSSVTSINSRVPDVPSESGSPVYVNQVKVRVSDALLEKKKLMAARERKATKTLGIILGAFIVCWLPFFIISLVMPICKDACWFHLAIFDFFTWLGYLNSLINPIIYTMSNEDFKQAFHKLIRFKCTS
# Chain of Mu-type opioid receptor (Homo sapiens) (P35372 whole entry): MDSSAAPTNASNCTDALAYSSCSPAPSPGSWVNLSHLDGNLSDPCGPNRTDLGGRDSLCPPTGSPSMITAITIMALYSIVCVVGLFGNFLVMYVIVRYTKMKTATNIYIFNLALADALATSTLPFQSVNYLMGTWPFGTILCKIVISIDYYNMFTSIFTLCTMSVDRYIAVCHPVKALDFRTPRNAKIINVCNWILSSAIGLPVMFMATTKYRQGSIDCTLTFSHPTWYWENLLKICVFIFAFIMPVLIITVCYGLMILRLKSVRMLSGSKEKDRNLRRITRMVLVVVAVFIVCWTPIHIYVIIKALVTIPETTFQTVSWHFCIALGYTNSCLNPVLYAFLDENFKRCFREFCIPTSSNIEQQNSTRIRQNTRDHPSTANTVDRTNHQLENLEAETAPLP
compound,measurement,setting,value
C[C@H](c1ccc(F)cc1)N(Cc1ccc(Cl)c(C(=O)O)c1)C(=O)c1cnc2ccccc2c1 [PF-05257137],IC50,[1],> 10 µM (not active)
same,inhibition,[2],-3.79%
same,inhibition,[3],-7.94%
same,inhibition,[4],-2.34%
same,inhibition,[5],21.8%
same,inhibition,[6],-7.78%
same,inhibition,[7],14.3%
same,inhibition,[8],1.77%
same,inhibition,[9],11.3%
same,inhibition,[10],13.8%
same,inhibition,[11],-0.95%
same,inhibition,[12],14.9%
same,inhibition,[13],12.8%
same,inhibition,[14],-2.63%
same,inhibition,[15],-9.65%
same,inhibition,[16],0.07%
same,inhibition,[17],12.4%
same,inhibition,[18],-0.42%
same,inhibition,[19],-0.14%
same,inhibition,[20],-3.13%
same,inhibition,[21],-8.13%
same,inhibition,[22],3.41%
same,inhibition,[23],11.5%
same,inhibition,[24],-1.36%
same,inhibition,[25],17.7%
same,inhibition,[26],14.2%
same,inhibition,[27],-0.35%
same,inhibition,[28],24.1%
same,inhibition,[29],14.5%
same,inhibition,[30],1.24%
same,inhibition,[31],39%
same,inhibition,[32],4.42%
same,inhibition,[33],-1.1%
same,inhibition,[34],-5.1%
same,inhibition,[35],28.3%
same,inhibition,[36],-9.88%
same,inhibition,[37],10.1%

# Source: ChEMBL document CHEMBL4507296 (2021)
